Results taken from ChEMBL document CHEMBL1134211, “8-Carboxamidocyclazocine analogues: redefining the structure-activity relationships of 2,6-methano-3-benzazocines” (Bioorg Med Chem Lett, 2001).

Experiments:
Mu-type opioid receptor = Mu-type opioid receptor (Cavia porcellus, UniProt P97266); test: Displacement of [3H]DAMGO from Opioid receptor mu 1 of guinea pig brain membranes
[1] = target: Kappa-type opioid receptor (Cavia porcellus, UniProt P41144); test: Displacement of [3H]U-69593 from Opioid receptor kappa 1 of guinea pig brain membranes
[2] = Displacement of [3H]naltrindole from Opioid receptor delta 1 of guinea pig brain membranes

Mu-type opioid receptor, sequence (P97266 whole entry): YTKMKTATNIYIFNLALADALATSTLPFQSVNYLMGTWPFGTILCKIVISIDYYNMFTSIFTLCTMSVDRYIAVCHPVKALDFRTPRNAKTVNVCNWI
Kappa-type opioid receptor, sequence (P41144 whole entry): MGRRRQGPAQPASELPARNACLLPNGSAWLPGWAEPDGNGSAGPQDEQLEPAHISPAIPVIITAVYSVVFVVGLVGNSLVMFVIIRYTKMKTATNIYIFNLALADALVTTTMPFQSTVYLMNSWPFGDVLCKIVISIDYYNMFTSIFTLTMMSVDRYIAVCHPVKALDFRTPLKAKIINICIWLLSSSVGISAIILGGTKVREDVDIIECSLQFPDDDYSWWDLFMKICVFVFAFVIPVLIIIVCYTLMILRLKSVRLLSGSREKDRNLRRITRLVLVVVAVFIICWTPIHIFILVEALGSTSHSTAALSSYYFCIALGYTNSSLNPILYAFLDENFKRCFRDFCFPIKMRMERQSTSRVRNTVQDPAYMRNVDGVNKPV

| SMILES | Ki (Mu-type opioid receptor) [nM] | Ki [1] [nM] | Ki [2] [nM] |
| --- | --- | --- | --- |
| C[C@H]1C2Cc3ccc(C(=O)O)cc3[C@@]1(C)CCN2CC1CC1 (mixture of isomers) | 58 | 31 | – |
| CNC(=O)c1ccc2c(c1)[C@@]1(C)CCN(CC3CC3)C(C2)[C@@H]1C (mixture of isomers) | 24 | 2.6 | – |
| C[C@@H]1[C@@H]2Cc3ccc(O)cc3[C@@]1(C)CN2CC1CC1 | – | – | 1100 |
| CC[C@@]12CCN(CC3CC3)C(C(=O)c3ccc(C(N)=O)cc31)[C@@H]2C (mixture of isomers) | 1.2 | 0.7 | – |
| C[C@H]1C2Cc3ccc(C#N)cc3[C@@]1(C)CCN2CC1CC1 (mixture of isomers) | 540 | – | – |
| COC(=O)c1ccc2c(c1)[C@@]1(C)CCN(CC3CC3)C(C2)[C@@H]1C (mixture of isomers) | 45 | – | – |
| C[C@H]1C2Cc3ccc(C(=O)Nc4ccccc4)cc3[C@@]1(C)CCN2CC1CC1 (mixture of isomers) | 740 | 460 | – |
| C[C@H]1C2Cc3ccc(C(=O)N(C)C)cc3[C@@]1(C)CCN2CC1CC1 (mixture of isomers) | 3000 | 2500 | – |
| C[C@H]1[C@H]2Cc3ccc(O)cc3[C@@]1(C)CCN2CC1CC1 (racemic) | – | – | 1.1 |
